From patent US20060276534A1, “Methods of decreasing calcification” (Amgen Inc., priority 2005, published 2006)
Values belong to the molecule of their own block, whether it stands above or below them.

Assays:
5/6 Nx rats [1] = experiment: Serum PTH, ionized Ca, P and creatinine in 5/6 Nx rats given paricalcitol and/or Compound B (Example 3); conditions: 14 days
5/6 Nx rats [2] = experiment: Ca and P content of thoracic aorta in 5/6 Nx rats given paricalcitol and/or Compound B (Example 3); assay type: in vivo, rat; conditions: 14 days
From the text: Wistar rats (200-250g), fed a 0.6% Ca and 1.2% P diet, were 5/6 nephrectomized (5/6 Nx) or sham-operated (sham).

5/6 Nx rats [3] = experiment: Soft tissue mineralization by Von Kossa staining in 5/6 Nx rats (Example 4); assay type: in vivo, rat; conditions: 5/6 Nx rats, 14 days
From the text: Wistar rats (200-250g), fed a 0.6% Ca and 1.2% P diet, were 5/6 nephrectomized (5/6 Nx).

5/6 Nx rats [4] = experiment: Ex vivo assessment of vascular calcification: aortic calcium and phosphorus content, von Kossa staining (Example 1); assay type: in vivo, rat; conditions: 14 days; for Mineral deposits in the aorta (von Kossa staining): single agents
Procedure: (§1) The rodent model of CKD used in these studies was induced by 5/6 nephrectomy (5/6 Nx), a two-step procedure that reduces the original functional renal mass by five-sixths (5/6). In the first step, animals were anesthetized using xylazine (5 mg/kg, ip) and ketamine (80 mg/kg, ip), a 5-8 mm incision was made on the left medio-lateral surface of the abdomen, and the left kidney was exposed. The left renal artery was visualized and 2 of the 3 branches tightly ligated, after which the kidney was inspected for infarct and returned to an anatomically neutral position within the peritoneal cavity. The abdominal wall and skin incisions were closed with suture, and the rat placed back into its home cage. After 1 week of recovery, the animal was reanesthetised and a 5-8 mm incision was made on the right medio-lateral surface of the abdomen. The right kidney was exposed and unencapsulated, the renal pedicle clamped and ligated, and the kidney was removed. The ligated pedicle was returned to a neutral anatomical position and the abdomen and skin incisions closed with suture materials. The animal was allowed to recover in its home cage. Sham-operated animals underwent the same procedures without renal manipulation.
(§2) After the second surgery, the diet was changed to one with decreased calcium (0.6%) and increased phosphorus (0.9%) content. The rats were randomized (based on the normal distribution of baseline body weights) into 6 experimental groups: sham-operated (n=13) (used as a control), 5/6 Nx+vehicle (saline) (n=10), 5/6 Nx+calcitriol 80 ng/kg (Calcijex, Abbot) ip every other day (n=10), 5/6 Nx+Compound A 1.5 mg/kg per day sc (n=10) (Amgen, Thousand Oaks, Calif. USA), 5/6 Nx+Compound A 3 mg/kg per day sc (n=10), or 5/6 Nx+combination calcitriol 80 ng/kg and Compound A 1.5 mg/kg (n=10) dosed as above. Treatments were maintained for 14 days. The rats were sacrificed by aortic puncture and exsanguination under general anesthesia (ip sodium thiopenthal) 24 hours after the last dose of drug.
Following sacrifice, the abdominal aortas were dissected and divided in two parts. One part was fixated in 10% buffered formalin and subsequently sectioned and stained for mineralization by the von Kossa method. The other was dimineralized in 10% formic acid, and the arterial tissue calcium and phosphorous content measured in the supernatant according to the method described by Price et al Arterioscler Thromb Vasc Biol 20:317-27, 2000.

5/6 Nx rats [5] = experiment: Vascular calcification regression in 5/6 Nx rats on high phosphorus diet with calcitriol; assay type: in vivo, rat
Procedure: Animals were 5/6 Nx as previously described and placed on a high phosphorus diet (0.6% Ca; 1.2% P) for 14 days. Animals were divided into four groups (A,B,C and D n=4-5 animals per group), one group (A) received vehicle (saline 0.2 ml i.p.) while the remaining three groups (B,C and D) received calcitriol (80 ng/kg every other day i.p.) for the course of the study (28 days). On day 14 two groups (C and D) were converted to normal diet (Ca 0.9%; P 0.6%) and group C was administered Compound A at 3 mg/kg daily p.o.), while group D received vehicle (0.5 ml of 10% captisol in water p.o.) daily. The remaining groups (A and B) were kept on the high phosphorus diet and administered either calcitriol or vehicle for the course of the study (28 days). On day 28 all animals were sacrificed (CO2) and the aortas removed for determining aortic P and Ca content (mg/g of tissue) as previously described

5/6 Nx rats [6] = experiment: Blood chemistries in 5/6 nephrectomy rat model of CKD (Example 1); assay type: in vivo; conditions: 14 days
From the text: Male Wistar rats weighing 250 g were purchased from the Animal Breeding Facility of the University of Cordoba (Spain). Rats were housed with a 12 hr/12 hr light/dark cycle and given ad libitum access to normal diet (calcium=0.9%, phosphorus=0.6%). The experimental protocols were reviewed and approved by the Ethics Committee for Animal Research of the Universidad de Cordoba (Spain), and all animals received humane care in compliance with the Principles of Laboratory Animal Care, formulated by the National Society for Medical Research and the Guide for the Care and Use of Laboratory Animals prepared by the National Academy of Science.
as §1, §2
Blood for chemistry analyses was collected from the abdominal aorta at the end of the treatment period. Blood for measurements of ionized calcium levels was collected in heparinized syringes and immediately analyzed using a Ciba-Corning 634 ISE Ca++/pH Analyzer (Ciba-Corning Essex, England). Afterwards, plasma was separated by centrifugation and stored at −70° C. until assayed. PTH levels were quantified according to the vendor's instructions using a rat PTH(1-34) immunoradiometric assay kit (Immunotopics, San Clemente, CA). Serum creatinine, phosphorous, and total calcium were measured by spectrophotometry (Sigma Diagnostics, St. Louis, Mo., USA).
Values were expressed as the mean±standard error (SE). The difference between means for two different groups was determined by t test; the difference between means for three or more groups was assessed by ANOVA. P<0.05 was considered significant.

[7] = 5/6 Nx rats, compared to 5/6 Nx+vehicle
[8] = serum, 5/6Nx rats, paricalcitol 240 ng/kg every 48 hr ip, Compound B 1.5 mg/kg every 48 hr sc
[9] = 5/6 Nx rats, compared to vehicle treated 5/6 Nx animals (Compound B also vs sham)
[10] = thoracic aorta, 5/6Nx rats, paricalcitol 240 ng/kg every 48 hr ip, Compound B 1.5 mg/kg every 48 hr sc
[11] = concurrent treatment with Compound A 1.5 mg/kg and calcitriol 80 ng/kg
[12] = Group C: normal diet from day 14 + Compound A 3 mg/kg daily p.o. while still receiving calcitriol, vs group D, day 28
[13] = Compound A 1.5 mg/kg per day sc, calcitriol 80 ng/kg ip every other day, or both, mean±SE
[14] = Compound A 3 mg/kg per day sc, mean±SE
[15] = Group B: high phosphorus diet + calcitriol 80 ng/kg every other day i.p. 28 days, vs Group A (vehicle)
[16] = calcitriol 80 ng/kg every 48 hr ip

Creatinine, change in words (5/6 Nx rats [1]; [7]): no changes
Creatinine (5/6 Nx rats [1]; 5/6Nx rats, paricalcitol 240 ng/kg every 48 hr ip, Compound B 1.5 mg/kg every 48 hr sc): 2.32 ± 0.43 mg/dL
Mineralization in kidney (Von Kossa staining) (5/6 Nx rats [3]; paricalcitol 240 ng/kg every 48 hr ip): increased mineralization
Compound: C[C@H](/C=C/[C@H](C)C(C)(C)O)[C@H]1CC[C@H]2/C(=C/C=C3C[C@@H](O)C[C@H](O)C3)CCC[C@]12C [Paricalcitol, paricalcitol, reference compound]
Blood ionized calcium, change in words (5/6 Nx rats [1]; [7]): no changes
Serum P levels, change in words (5/6 Nx rats [1]; [7]): no changes
Serum PTH levels, change in words (5/6 Nx rats [1]; [7]): significantly (p<0.05) decreased
P (5/6 Nx rats [1]; [8]): 14.7 ± 2.1 mg/dL
PTH (5/6 Nx rats [1]; [8]): 250 ± 61 pg/mL
Aortic Ca content, change in words (5/6 Nx rats [2]; [9]): significantly increased
Aortic P content, change in words (5/6 Nx rats [2]; [9]): significantly increased
Aortic Ca (5/6 Nx rats [2]; [10]): 9.5 ± 2.2 mg/g
Aortic P (5/6 Nx rats [2]; [10]): 6.2 ± 2.4 mg/g

Calcitriol mediated increase in serum creatinine levels (5/6 Nx rats [6]; Compound A 1.5 mg/kg per day sc included with calcitriol 80 ng/kg): decreased
Compound: COc1cccc([C@@H](C)NCCCc2ccccc2Cl)c1.Cl [Compound A, N-(3-[2-chlorophenyl]-propyl)-R-α-methyl-3-methoxybenzylamine HCl]
Raised phosphorus content in the aortic tissue, in words (5/6 Nx rats [4]; Compound A alone 1.5 or 3 mg/kg): did not
Development of aortic calcification (von Kossa staining) (5/6 Nx rats [4]; addition of Compound A 1.5 mg/kg to the calcitriol-treatment regimen): prevented the development of aortic calcification
Calcitriol-induced increase in aortic calcium (5/6 Nx rats [4]; [11]): significantly (P=0.002) attenuated
Calcitriol-induced increase in aortic phosphorus (5/6 Nx rats [4]; [11]): significantly (P=0.013) attenuated
Mineral deposits in the aorta (von Kossa staining) (5/6 Nx rats [4]): not observed
Aortic calcium content (5/6 Nx rats [5]; [12]): lower
Aortic phosphorus content (5/6 Nx rats [5]; [12]): significant (p<0.05) reduction
Serum PTH concentration (5/6 Nx rats [6]; Compound A 1.5 mg/kg per day sc alone or with calcitriol 80 ng/kg, mean±SE): 73.5 ± 12.8 pg/mL
Serum ionized calcium levels (5/6 Nx rats [6]; [13]): 1.20 ± 0.02 mmol/L
Serum phosphorus levels (5/6 Nx rats [6]; [13]): 6.6 ± 0.3 mg/dL
Serum ionized calcium levels (5/6 Nx rats [6]; [14]): 1.22 ± 0.02 mmol/L
Serum phosphorus levels (5/6 Nx rats [6]; [14]): 6.9 ± 0.4 mg/dL

Serum creatinine levels (5/6 Nx rats [6]; calcitriol 80 ng/kg ip every other day, alone or with Compound A 1.5 mg/kg per day sc, mean±SE): 1.05 ± 0.07 mg/dL
Mineralization in heart (Von Kossa staining) (5/6 Nx rats [3]; [16]): increased mineralization
Mineralization in kidney (Von Kossa staining) (5/6 Nx rats [3]; [16]): increased mineralization
Mineralization in lung (Von Kossa staining) (5/6 Nx rats [3]; [16]): increased mineralization
Compound: C=C1/C(=C\C=C2/CCC[C@]3(C)[C@@H]([C@H](C)CCCC(C)(C)O)CC[C@@H]23)C[C@@H](O)C[C@@H]1O [calcitriol, reference compound]
Phosphorus content in the aortic tissue (5/6 Nx rats [4]; calcitriol 80 ng/kg ip every other day): 2.1±1 mg/g tissue
Aortic calcium content (5/6 Nx rats [4]; calcitriol 80 ng/kg ip every other day, mean±SE): 4.2±1.1 mg/g tissue
Mineral deposits in the aorta (von Kossa staining) (5/6 Nx rats [4]): marked von Kossa staining
Aortic calcium content (5/6 Nx rats [5]; [15]): significant (p<0.05) increases
Aortic phosphorus content (5/6 Nx rats [5]; [15]): significant (p<0.05) increases
Serum ionized calcium levels (5/6 Nx rats [6]; [13]): 1.28 ± 0.02 mmol/L
Serum phosphorus levels (5/6 Nx rats [6]; [13]): 10.2 ± 0.9 mg/dL
